In series [1] the target is T1, C-X-C chemokine receptor type 2 (Homo sapiens, UniProt P25025).
T1 sequence (P25025 whole entry): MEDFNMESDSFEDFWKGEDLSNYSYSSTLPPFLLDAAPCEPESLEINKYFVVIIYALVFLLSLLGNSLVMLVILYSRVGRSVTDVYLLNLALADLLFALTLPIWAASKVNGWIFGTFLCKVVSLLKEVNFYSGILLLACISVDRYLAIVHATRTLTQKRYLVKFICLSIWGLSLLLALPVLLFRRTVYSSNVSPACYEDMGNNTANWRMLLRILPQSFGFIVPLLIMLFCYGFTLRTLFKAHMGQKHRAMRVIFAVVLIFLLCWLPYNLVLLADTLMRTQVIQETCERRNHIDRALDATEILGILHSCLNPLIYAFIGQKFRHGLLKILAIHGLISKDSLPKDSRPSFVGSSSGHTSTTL
Briefly: Displacement of [125I]IL8 from human recombinant CXCR2 expressed in CHO cells. It is filed as cell-based.

The nature of series [2]: Dissociation constant, pKa at pH 7.4. Type of series: physicochemical.
Series [3] can be described thus: Aqueous solubility in phosphate buffer at pH 7.4. It is filed as physicochemical.
A short description of series [4]: Clearance in Sprague-Dawley rat at 4 umol/kg, iv and 8 umol/kg, po. It is filed as ADME, organism-based. Conditions: in vivo.
Series [5] is described as follows: Volume of distribution at steady state in Sprague-Dawley rat at 4 umol/kg, iv and 8 umol/kg, po. It is filed as ADME, organism-based. The settings on record: in vivo, read-out: Vdss.
A short description of the next series: in vivo. Conditions: Sprague-Dawley, rat, po, 8 umol/kg.

Converted amounts (≈) assume the structure as drawn. “And” between values parts separate entries of the source, which are not always exact repeats. Equal entries are not always repeated. Some results are limits rather than exact numbers.

Take `N#Cc1ccc(Nc2c(O)c(=O)/c2=N\c2ccccc2)c(O)c1`: in series [1], the IC50 amounted to 15 nM. Further, the pKa in series [2] amounted to 7.09.
With `O=c1c(Nc2ccccc2)c(Nc2cc(Cl)c([N+](=O)[O-])cc2O)c1=O`, in series [1], the IC50 came out at 52 nM.
As to `O=c1c(Nc2ccccc2)c(Nc2cc(Cl)ccc2O)c1=O`, the IC50 in series [1] is 54 nM.
For `NC(=O)c1c(Cl)ccc(Nc2c(Nc3ccccc3)c(=O)c2=O)c1O`, the IC50 in series [1] stood at 14 nM. Further, the solubility in series [3] stood at 88 µM (≈ 31.5 µg/mL).
Turning to `CCCc1ccccc1Nc1c(Nc2ccc(Cl)c(S(=O)(=O)N3CCN(CC)CC3)c2O)c(=O)c1=O.O=C(O)C(F)(F)F`, the IC50 in series [1] stood at 8 nM. The compound also had a solubility in series [3] of 78 µM. Besides, the clearance in series [4] came to 7 mL/min/kg. Besides, in series [5], the Vd turned out to be 0.89 L/kg.
For `O=c1c(Nc2ccccc2)c(Nc2c(O)cccc2[N+](=O)[O-])c1=O`, the IC50 in series [1] was 358 nM.
With `N#Cc1ccc(Nc2c(Nc3ccccc3Br)c(=O)c2=O)c(O)c1`, in series [1], the IC50 was 15 nM and 36 nM. Further, the solubility in series [3] came to 14 µM (≈ 5.38 µg/mL). In series [4], this compound showed a clearance of 15 mL/min/kg. Moreover, the Vd in series [5] is 0.15 L/kg.
`O=c1c(Nc2ccc([N+](=O)[O-])cc2O)c(Nc2ccccc2Br)c1=O`: in series [1], the 50% inhibitory concentration (IC50) came out at 37 nM.
On to `N#Cc1cccc(NC(=O)Nc2ccccc2)c1O`, for which the IC50 in series [1] was found to be 276 nM.
As for `O=C(Nc1ccccc1O)Nc1ccccc1Br`, the IC50 in series [1] was greater than 9000 nM.
As to `Cc1ccccc1Nc1c(Nc2ccc(C)c(S(=O)(=O)N(C)C)c2O)c(=O)c1=O`, in series [1], the IC50 came out at 15 nM. The amount in solution in series [3] (solubility) came to 10 µM (≈ 4.15 µg/mL). In series [4], this compound registered a clearance of 4 mL/min/kg. Also, the Vd in series [5] was found to be 0.25 L/kg.
For the compound `CN1CCN(S(=O)(=O)c2c(F)ccc(Nc3c(Nc4ccccc4Br)c(=O)c3=O)c2O)CC1.O=C(O)C(F)(F)F`, in series [1], the IC50 worked out at 13 nM. The same compound yielded a solubility in series [3] of 44 µM.
As for `CN1CCCN(C(=O)c2cccc(Nc3c(Nc4ccccc4)c(=O)c3=O)c2O)CC1.O=C(O)C(F)(F)F`, in series [1], the IC50 was found to be 44 nM. Also, the concentration in solution in series [3] (solubility) was 178 µM. This compound also displayed a clearance in series [4] of 15 mL/min/kg. Also, the Vd in series [5] was determined as 0.33 L/kg.
As to `N#Cc1cccc(Nc2c(Nc3ccccc3)c(=O)c2=O)c1O`, in series [1], the IC50 came out at 32 nM.
The same measure, in the same setting: under `Cc1ccc(NC(=O)Nc2ccccc2)c(O)c1` stands 25000 nM; under `Cc1ccc(O)c(NC(=O)Nc2ccccc2)c1`, greater than 30000 nM; under `Cc1cccc(O)c1NC(=O)Nc1ccccc1`, greater than 30000 nM.
The same measure, in the same setting: under `O=C(Nc1ccccc1)Nc1c(O)cccc1[N+](=O)[O-]` stands greater than 30000 nM; under `O=c1c(O)c(Nc2ccc([N+](=O)[O-])cc2O)/c1=N/c1ccccc1`, 22 nM.
On the same count and under the same terms, under `O=c1c(Nc2ccccc2O)c(Nc2ccccc2Br)c1=O` stands 51 nM.
On to `COCCNS(=O)(=O)c1c(Cl)ccc(Nc2c(Nc3ccccc3)c(=O)c2=O)c1O`, for which the IC50 in series [1] is 8 nM. The concentration in solution in series [3] (solubility) was 73 µM (≈ 33 µg/mL). Besides, the clearance in series [4] was 0.6 mL/min/kg. Moreover, the Vd in series [5] was 0.14 L/kg. In “in vivo”, this compound registered a bioavailability of 23%.
In the case of `Cc1ccc(Nc2c(Nc3ccccc3)c(=O)c2=O)c(O)c1`, the IC50 in series [1] is 205 nM.
Turning to `CN1CCN(C(=O)c2cccc(Nc3c(Nc4ccccc4)c(=O)c3=O)c2O)CC1.O=C(O)C(F)(F)F`, in series [1], the IC50 came out at 27 nM. The solubility in series [3] was 121 µM.
Consider `O=C(Nc1ccccc1)Nc1cc(Cl)ccc1O`, for which the IC50 in series [1] is greater than 30000 nM.
On to `Cc1ccc(O)c(Nc2c(Nc3ccccc3)c(=O)c2=O)c1`, for which, in series [1], the IC50 is 308 nM.
On the same count and under the same terms, under `Cc1cccc(O)c1Nc1c(Nc2ccccc2)c(=O)c1=O` stands 1720 nM.
As to `O=C(c1cccc(Nc2c(Nc3ccccc3C(F)(F)F)c(=O)c2=O)c1O)N1CCCC1`, in series [3], the concentration in solution (solubility) was 86 µM (≈ 38.3 µg/mL). In series [4], this compound yielded a clearance of 45 mL/min/kg. The Vd in series [5] was 0.66 L/kg.
Take `O=C(c1c(Cl)ccc(Nc2c(Nc3ccccc3Br)c(=O)c2=O)c1O)N1CCCC1`: the concentration for half-maximal inhibition (IC50) in series [1] turned out to be 28 nM. The compound also gave a solubility in series [3] of 143 µM (≈ 70.2 µg/mL).
On to `O=c1c(O)c(Nc2ccccc2)/c1=N/c1ccccc1O`, for which the IC50 in series [1] is 235 nM. The pKa in series [2] was 8.6.
With `O=C(Nc1ccccc1)Nc1cc(Cl)c([N+](=O)[O-])cc1O`, the IC50 in series [1] is 950 nM.
As for `O=c1c(Nc2ccc(Cl)cc2O)c(Nc2ccccc2Br)c1=O`, the IC50 in series [1] stood at 32 nM. For the same compound, in series [3], the solubility was found to be 3 µM (≈ 1.18 µg/mL).
With `CN1CCCN(S(=O)(=O)c2c(Cl)ccc(Nc3c(Nc4ccccc4Cl)c(=O)c3=O)c2O)CC1.Cl`, the IC50 in series [1] is 20 nM. This compound also gave a solubility in series [3] of 160 µM. The clearance in series [4] was found to be 4 mL/min/kg. The Vd in series [5] turned out to be 0.31 L/kg.
The compound `Cl.O=c1c(Nc2ccccc2)c(Nc2ccc(Cl)c(S(=O)(=O)N3CCC(N4CCCCC4)CC3)c2O)c1=O` came in with a solubility in series [3] of 7 µM. Also, the clearance in series [4] was found to be 1.2 mL/min/kg. For the same compound, in series [5], the Vd was 0.24 L/kg. Further, the bioavailability in the series “in vivo” was found to be 5%.
In the case of `CN1CCCN(S(=O)(=O)c2c(Cl)ccc(Nc3c(Nc4ccccc4Br)c(=O)c3=O)c2O)CC1.Cl`, in series [1], the IC50 stood at 10 nM. This compound also gave a solubility in series [3] of 138 µM. Besides, the clearance in series [4] turned out to be 4 mL/min/kg. Also, in series [5], the Vd turned out to be 0.24 L/kg.
Turning to `O=C(Nc1ccccc1)Nc1ccccc1O`, the IC50 in series [1] was greater than 30000 nM.

These data come from ChEMBL document CHEMBL1139102, “Comparison of N,N'-diarylsquaramides and N,N'-diarylureas as antagonists of the CXCR2 chemokine receptor” (Bioorg Med Chem Lett, 2007).
